We go through 16 compounds from patent publication US11351178B2, “Selective HDAC6 inhibitors” (ITALFARMACO S.P.A., priority 2017, dated 2022).

Data set [1] is described as follows: Stability to Phase I metabolism in rat S9 liver fraction. Particulars: after 90 min, 37° C. It is filed as in vitro ADME. A digest of the protocol: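 Phase I stability in human and rat hepatic S9 at 37 °C, sampled up to 90 min. Samples were stopped with acidified acetonitrile on ice, then quantified by HPLC-UV or LC-MS/MS.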
For data set [2], the system named is peripheral blood mononuclear cells (PBMCs). As to the kind of experiment: Cytotoxicity on PBMCs (CellTiter 96). It is filed as cell-based. As to conditions: PBMC, 72 h; read-out: PBMC TOXICITY (72 h). On the procedure:
(§1) Cytotoxic activity was evaluated on B 697 […] cell line for all synthesized compounds and on peripheral blood mononuclear cells (PBMCs) for compounds showing a good potency/selectivity profile.
(§2) Cells were seeded in plate (2×10^4 cells per well for 697, 5×10^5 cells per well for PBMCs). The test compounds (concentrations from 1.5 nM to 10000 nM for PBMCs and from 1 nM to 10000 nM for 697) were added after 24 hours and incubated 72 hours. The molecules cytotoxic activity was evaluated using CellTiter 96© Aqueous One Solution Cell Proliferation Assay (Promega), which measures the mitochondria function, following the manufacturer's instructions.

In another data set the target is T1, recombinant human HDAC6 (Homo sapiens, UniProt Q9UBN7).
T1 sequence (Q9UBN7 1-1215): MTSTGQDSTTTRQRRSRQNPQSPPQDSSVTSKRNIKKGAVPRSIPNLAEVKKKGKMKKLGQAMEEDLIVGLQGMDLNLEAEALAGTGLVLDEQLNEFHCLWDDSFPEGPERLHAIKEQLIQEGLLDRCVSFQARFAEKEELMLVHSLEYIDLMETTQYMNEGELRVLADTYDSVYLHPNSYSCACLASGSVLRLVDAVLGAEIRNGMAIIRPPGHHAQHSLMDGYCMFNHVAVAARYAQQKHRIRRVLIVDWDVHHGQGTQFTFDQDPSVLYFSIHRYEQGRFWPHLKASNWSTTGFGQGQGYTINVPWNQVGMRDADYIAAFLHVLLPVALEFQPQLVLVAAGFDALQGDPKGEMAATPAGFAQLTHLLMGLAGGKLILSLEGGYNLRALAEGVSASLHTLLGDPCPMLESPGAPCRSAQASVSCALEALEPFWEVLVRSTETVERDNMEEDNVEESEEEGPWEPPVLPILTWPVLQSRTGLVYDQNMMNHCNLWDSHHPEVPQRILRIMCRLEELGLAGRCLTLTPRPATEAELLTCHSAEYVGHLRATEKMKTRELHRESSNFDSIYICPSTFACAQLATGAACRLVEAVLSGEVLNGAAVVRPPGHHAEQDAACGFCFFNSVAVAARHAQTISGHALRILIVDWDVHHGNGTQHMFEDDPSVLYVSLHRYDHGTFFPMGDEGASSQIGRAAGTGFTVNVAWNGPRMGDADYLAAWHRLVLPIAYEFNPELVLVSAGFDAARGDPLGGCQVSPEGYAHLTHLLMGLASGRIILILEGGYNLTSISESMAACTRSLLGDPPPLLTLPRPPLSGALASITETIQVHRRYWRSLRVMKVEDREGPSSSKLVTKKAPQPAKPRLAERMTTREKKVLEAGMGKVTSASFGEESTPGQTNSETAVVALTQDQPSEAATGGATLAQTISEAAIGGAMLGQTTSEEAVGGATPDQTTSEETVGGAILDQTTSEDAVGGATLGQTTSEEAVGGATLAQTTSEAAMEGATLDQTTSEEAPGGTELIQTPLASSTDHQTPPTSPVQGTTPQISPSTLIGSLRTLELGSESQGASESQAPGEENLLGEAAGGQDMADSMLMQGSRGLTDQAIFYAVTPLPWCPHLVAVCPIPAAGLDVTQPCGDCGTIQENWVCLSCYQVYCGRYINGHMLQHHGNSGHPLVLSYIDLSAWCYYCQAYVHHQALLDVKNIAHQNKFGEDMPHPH
The data set can be described thus: Enzymatic screening on recombinant human HDAC6. It is filed as biochemical. As to conditions: Table 2; read-out: HDAC6 IC50. A digest of the protocol: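 Substrates were Fluor de Lys, Fluor de Lys-Green or trifluoroacetyl-L-lysine, in 25 mM Tris-HCl pH 8, 130 mM NaCl, 0.05% Tween-20, 10% glycerol. They were added after isoform-dependent preincubation of recombinant human enzyme with compound at 30 °C, and the reaction also ran at 30 °C.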

For data set [3], the system named is B 697 promyelocytic cell line. As to the kind of experiment: Cytotoxicity on 697 cell line (CellTiter 96). Particulars: 72 hours incubation, read-out: 697 TOXICITY
It is filed as cell-based. The procedure: as §1, §2

The next data set can be described thus: Stability in rat plasma. It is filed as in vitro ADME. As to conditions: after 4 hours, 37° C. A digest of the protocol: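 Compounds incubated at 37° C in rat or human plasma at 50 μM (UV/HPLC) or 1 or 2 μM (LC-MS/MS) for 0–4 h. Reaction stopped with acidified acetonitrile on ice; percent remaining versus initial amount and plasma half-life calculated.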

Turning to `Cc1nc(N2CCOCC2)sc1-c1nnc(Sc2c(F)cc(C(=O)NO)cc2F)n1C` [comp. 9, 3,5-difluoro-N-hydroxy-4-((4-methyl-5-(4-methyl-2-morpholinothiazo-5-yl)-4H-1,2,4-triazol-3-yl)thio)benzamide], in data set [1], the “residual percentage in rat S9 fraction” value is 75%. Further, the values for the IC50 (in data set [2]; on recombinant human HDAC6; in data set [3]) were above 10000 nM, 79 nM and above 10000 nM, respectively. Further, the “residual percentage in rat plasma” value in “Stability in rat plasma” was 106%.

Regarding `Cn1c(Sc2c(F)cc(C(=O)NO)cc2F)nnc1-c1ccc(CN2CCCCC2)cc1` [comp. 16, 3,5-difluoro-N-hydroxy-4-((4-methyl-5-(4-(piperidin-1-ylmethyl)phenyl)-4H-1,2,4-triazol-3-yl)thio)benzamide], the “residual percentage in rat S9 fraction” value in data set [1] amounted to 74%. Further, the IC50 came to 7500 nM in data set [2], 5 nM at recombinant human HDAC6 and 7880 nM in data set [3]. For the same compound, the “residual percentage in rat plasma” value in the data set “Stability in rat plasma” came out at 75%.

On to `Cc1nc(N2CCOCC2)sc1-c1nnc(Cc2ccc(C(=O)NO)cc2)o1` [comp. 75, 4-[[5-(4-methyl-2-morpholino-thiazol-5-yl)-1,3,4-oxadiazol-2-yl]methyl]benzenecarbohydroxamic acid], for which the “residual percentage in rat S9 fraction” value in data set [1] is on record as 75%. The IC50 in data set [2] amounted to 514 nM; at recombinant human HDAC6, 4 nM; in data set [3], 1200 nM. For the same compound, the “residual percentage in rat plasma” value in “Stability in rat plasma” was 116%.

`O=C(NO)c1ccc(Cn2nnc(-c3nccc4ccccc34)n2)cc1` [comp. 87, 4-[[5-(1-isoquinolyl)tetrazol-2-yl]methyl]benzenecarbohydroxamic acid]: the “residual percentage in rat S9 fraction” value in data set [1] turned out to be 77%. In addition, the IC50 in data set [2] was 6000 nM; on recombinant human HDAC6, 20 nM; in data set [3], 6660 nM. Moreover, the “residual percentage in rat plasma” value in “Stability in rat plasma” is 0%.

With `O=C(NO)c1ccc(Cn2nnnc2-c2ccc3ccccc3n2)cc1` [comp. 91, 4-[[5-(2-quinolyl)tetrazol-1-yl]methyl]benzenecarbohydroxamic acid], in data set [1], the “residual percentage in rat S9 fraction” value is 8%. For the same compound, the IC50 in data set [2] amounted to 812 nM; at recombinant human HDAC6, 3 nM; in data set [3], 783 nM. For the same compound, the “residual percentage in rat plasma” value in the data set “Stability in rat plasma” was 93%.

Regarding `O=C(NO)c1cc(F)c(Cn2nnnc2-c2ccco2)c(F)c1` [comp. 92, 3,5-difluoro-4-[[5-(2-furyl)tetrazol-1-yl]methyl]benzenecarbohydroxamic acid], in data set [1], the “residual percentage in rat S9 fraction” value turned out to be 71%. In addition, the IC50 in data set [2] was above 10000 nM; on recombinant human HDAC6 it was 27 nM; in data set [3] it was above 10000 nM. In addition, in “Stability in rat plasma”, the “residual percentage in rat plasma” value was 79%.

In the case of `O=C(NO)c1cc(F)c(Cn2nnc(-c3nccc4ccccc34)n2)c(F)c1` [comp. 93, 3,5-difluoro-4-[[5-(1-isoquinolyl)tetrazol-2-yl]methyl]benzenecarbohydroxamic acid], in data set [1], the “residual percentage in rat S9 fraction” value is listed as 53%. Also, the IC50 in data set [2] was above 10000 nM; at recombinant human HDAC6 it was 22 nM; in data set [3], above 10000 nM. The “residual percentage in rat plasma” value in “Stability in rat plasma” worked out at 10%.

For `Nc1ccc(-c2nnn(Cc3ccc(C(=O)NO)cc3)n2)cc1` [comp. 169, 4-[[5-(4-aminophenyl)tetrazol-2-yl]methyl]benzenecarbohydroxamic acid], the “residual percentage in rat S9 fraction” value in data set [1] stood at 44%. Besides, the figures for the IC50 (in data set [2]; at recombinant human HDAC6; in data set [3]) were 24 nM, 1 nM and 271 nM, respectively. In addition, the “residual percentage in rat plasma” value in “Stability in rat plasma” is recorded as 68%.

As to `NCc1ccc(-c2nnn(Cc3c(F)cc(C(=O)NO)cc3F)n2)cc1` [comp. 175, 4-[[5-[4-(aminomethyl)phenyl]tetrazol-2-yl]methyl]-3,5-difluoro-benzenecarbohydroxamic acid], the IC50 was 1260 nM in data set [2], 4 nM at recombinant human HDAC6 and 10100 nM in data set [3].

`NCc1ccc(-c2nnnn2Cc2c(F)cc(C(=O)NO)cc2F)cc1` [comp. 176, 4-[[5-[4-(aminomethyl)phenyl]tetrazol-1-yl]methyl]-3,5-difluoro-benzenecarbohydroxamic acid]: the IC50 came to 5300 nM in data set [2], 55 nM at recombinant human HDAC6 and 50300 nM in data set [3].

`Cn1c(Sc2c(F)cc(C(=O)NO)cc2F)nnc1C1(c2ccccn2)CC1` [comp. 177, 3,5-difluoro-4-[[4-methyl-5-[1-(2-pyridyl)cyclopropyl]-1,2,4-triazol-3-yl]sulfanyl]benzenecarbohydroxamic acid]: the IC50 in data set [2] was above 10000 nM; on recombinant human HDAC6 it was 21 nM; in data set [3], 50300 nM.

With `Cn1c(Sc2c(F)cc(C(=O)NO)cc2F)nnc1C1(c2cccnc2)CC1` [comp. 178, 3,5-difluoro-4-[[4-methyl-5-[1-(3-pyridyl)cyclopropyl]-1,2,4-triazol-3-yl]sulfanyl]benzenecarbohydroxamic acid], the results for the IC50 (in data set [2]; on recombinant human HDAC6; in data set [3]) were above 10000 nM, 23 nM and 50300 nM, respectively.

With `Cn1c(Sc2c(F)cc(C(=O)NO)cc2F)nnc1-c1cccc(CN2CCCCC2)c1` [comp. 181, 3,5-difluoro-4-[[4-methyl-5-[3-(1-piperidylmethyl)phenyl]-1,2,4-triazol-3-yl]sulfanyl]benzenecarbohydroxamic acid], the figures for the IC50 (in data set [2]; on recombinant human HDAC6; in data set [3]) were above 10000 nM, 10 nM and 50300 nM, respectively.

Consider `Cn1c(Sc2c(F)cc(C(=O)NO)cc2F)nnc1-c1cccc(CN2CCOCC2)c1` [comp. 182, 3,5-difluoro-4-[[4-methyl-5-[3-(morpholinomethyl)phenyl]-1,2,4-triazol-3-yl]sulfanyl]benzenecarbohydroxamic acid], for which the IC50 is at least 100000 nM in data set [2], 16 nM on recombinant human HDAC6 and 50300 nM in data set [3].

For the compound `CN(Cc1ccccc1)Cc1cccc(-c2nnc(Sc3c(F)cc(C(=O)NO)cc3F)n2C)c1` [comp. 184, 4-[[5-[3-[[benzyl(methyl)amino]methyl]phenyl]-4-methyl-1,2,4-triazol-3-yl]sulfanyl]-3,5-difluoro-benzenecarbohydroxamic acid], the values for the IC50 (in data set [2]; at recombinant human HDAC6; in data set [3]) were at least 100000 nM, 17 nM and 14700 nM, respectively.

On to `Cn1c(Sc2c(F)cc(C(=O)NO)cc2F)nnc1C(C)(C)c1cccnc1` [comp. 186, 3,5-difluoro-4-[[4-methyl-5-[1-methyl-1-(3-pyridyl)ethyl]-1,2,4-triazol-3-yl]sulfanyl]benzenecarbohydroxamic acid], for which the “residual percentage in rat S9 fraction” value in data set [1] is given as 9%. The values for the IC50 (in data set [2]; at recombinant human HDAC6; in data set [3]) were at least 100000 nM, 23 nM and 10400 nM, respectively. Besides, the “residual percentage in rat plasma” value in “Stability in rat plasma” came to 75%.
